# Literature values as cited in US8298992B2, “Low odor, low volatility solvent for agricultural chemicals” (Huntsman Petrochemical LLC, priority 2006, dated 2012).
# Settings: solubility data available for a dimethyamide (comparison)
compound,measurement,value
"CCCCCCCCCC(=O)N(C)C [N,N-dimethyldecanamide]",Solubility in Water (wt %),3.8% wt %
